From patent publication US6878727B2 (Agouron Pharmaceuticals, Inc., priority 2002, dated 2005)

Target: T1, HCV polymerase (Hepatitis C virus genotype 1b, UniProt P26663)
T1 construct: 2.5 pmoles (0.15 μg) HCV polymerase protein in a final volume of 75 μL
Experiment: HCV Polymerase Inhibition Assay
Format: biochemical
Details: @ 50 μM compound; given where it was impractical to calculate an IC50
Protocol: HCV Polymerase Inhibition Assay
The above-described compounds were tested for activity with HCV polymerase. Recombinant HCV polymerase was tested for its ability to perform primer/template-directed transcription in assays that contained 30 mM tris-HCl pH 7.2, 10 mM MgCl2, 20 mM NaCl, 1 mM Dithiothreitol (DTT), 0.05% Tween-20, 1% glycerol, 5 pmoles biotin-dG12 (primer), 0.5 pmoles poly(rC)300 (template), 1 μM GTP, 0.1-0.3 uCi α-^32P-GTP, and 2.5 pmoles (0.15 μg) HCV polymerase protein in a final volume of 75 μL. Reactions were initiated by addition of enzyme and incubated 30 minutes at 30° C. Reactions were stopped by addition of 33 mM EDTA, and polynucleotide products were collected by filtration through Diethylaminoethyl (DE) Filtermat papers (Wallac). Unincorporated triphosphate was removed by washing the filters with 5% dibasic sodium phosphate. The filters were counted in a Packard Tri-Lux Microbeta scintillation counter (Packard Bioscience, Meriden, Conn.). Compounds to be tested were added at various concentrations, e.g., 1 μm to 50 μm, from stocks in 10% DMSO-water (final DMSO is 1% in reaction).
IC50 values were estimated from the primary cpm data (collected in triplicate) using the formula: cpm (I)=cpm (no inhibitor)(1−([I]/([I]+IC50))). An IC50 value represents the concentration (in μM) of a compound that provides 50% inhibition of polymerase-directed transcription in the above assay. A percent inhibition value is expressed for a compound where it was impractical to calculate an IC50 value with available data. If the IC50 estimated by the above equation was less than 200 nM, it was recalculated using the following equation, which takes into account the enzyme concentration (30 nM) in the assay: cpm(I)=cpm(no inhibitor)(1−((((I+IC50+30e−9)−sqrt(((I+IC50+30e−9)^2)−4×30e−9×1)))/((2) (30e−9))). Curve fitting was performed using the program KaleidaGraph (Synergy Software, Reading, Pa.).

T1 sequence (P26663 2420-3010): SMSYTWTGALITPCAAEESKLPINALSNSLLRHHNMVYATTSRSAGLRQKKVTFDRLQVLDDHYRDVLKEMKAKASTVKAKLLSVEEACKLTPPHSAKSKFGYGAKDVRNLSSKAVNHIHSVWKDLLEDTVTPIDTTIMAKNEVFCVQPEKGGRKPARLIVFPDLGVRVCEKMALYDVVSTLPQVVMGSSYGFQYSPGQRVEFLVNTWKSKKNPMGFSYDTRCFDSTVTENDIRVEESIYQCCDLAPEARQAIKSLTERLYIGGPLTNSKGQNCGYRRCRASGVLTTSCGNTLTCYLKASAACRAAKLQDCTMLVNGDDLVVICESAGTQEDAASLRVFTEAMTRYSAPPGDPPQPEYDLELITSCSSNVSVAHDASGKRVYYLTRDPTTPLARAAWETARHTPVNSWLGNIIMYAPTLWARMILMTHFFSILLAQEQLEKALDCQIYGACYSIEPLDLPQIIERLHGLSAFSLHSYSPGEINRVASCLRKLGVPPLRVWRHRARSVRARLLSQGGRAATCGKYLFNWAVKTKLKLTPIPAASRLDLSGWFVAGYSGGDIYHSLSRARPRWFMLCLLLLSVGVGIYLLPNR

With `CCOC1=CC(=O)OC(CCC#Cc2cccc(O)c2)(C2CCCC2)C1` (centres unmarked) [Example 15, 6-cyclopentyl-4-ethoxy-6-[4-(3-hydroxy-phenyl)-but-3-ynyl]-5,6-dihydro-pyran-2-one] the inhibition at 50 µM was 27%.

Same assay, conditions: recombinant HCV polymerase, primer/template-directed transcription (biotin-dG12/poly(rC)300), 30 minutes at 30° C.

Point of comparison: `O=C1CC(=O)OC(CCC#Cc2cccc(O)c2)(C2CCCC2)C1` (centres unmarked) [Example 13, 6-Cyclopentyl-6-[4-(3-hydroxy-phenyl)-but-3-ynyl]-dihydro-pyran-2,4-dione], IC50 4.5 µM. Against it:
- O=C1CC(=O)OC(CCC#Cc2ccc3ocnc3c2)(C2CCCC2)C1 (centres unmarked) [Example 14, 6-(4-benzooxazol-5-yl-but-3-ynyl)-6-cyclopentyl-dihydro-pyran-2,4-dione] — within 1.5-fold, 5.8 µM
- O=C1CC(=O)OC(CCC#Cc2ccc3c(c2)OCO3)(C2CCCC2)C1 (centres unmarked) [Example 10, 6-(4-Benzo[1,3]dioxol-5-yl-but-3-ynyl)-6-cyclopentyl-dihydro-pyran-2,4-dione] — 2.4-fold higher, 10.7 µM
- O=C1CC(=O)OC(CCC#Cc2ccc3c(c2)OCCO3)(C2CCCC2)C1 (centres unmarked) [Example 9, 6-Cyclopentyl-6-[4-(2,3-dihydro-benzo[1,4]dioxin-6-yl)-but-3-ynyl]-dihydro-pyran-2,4-dione] — 2.6-fold higher, 11.7 µM
- O=C1CC(CCC#Cc2cccc(O)c2)(C2CCCC2)OC(=O)C1Sc1ccccc1 (centres unmarked) [Example 17, 6-Cyclopentyl-6-[4-(3-hydroxy-phenyl)-but-3-ynyl]-3-phenylsulfanyl-dihydro-pyran-2,4-dione] — 1.7-fold higher, 7.6 µM
- CC(C)c1cccc(C#CC2(C3CCCC3)CC(=O)CC(=O)O2)c1 (centres unmarked) [Example 3] — 1.9-fold higher, 8.5 µM
- C#CCCC1(C2CCCC2)CC(=O)CC(=O)O1 (centres unmarked) [Example 5, 6-but-3-ynyl-6-cyclopentyl-dihydro-pyran-2,4-dione] — 16-fold higher, 74 µM
- COc1cccc(C#CCCC2(C3CCCC3)CC(=O)CC(=O)O2)c1 (centres unmarked) [Example 7, 6-Cyclopentyl-6-[4-(3-methoxy-phenyl)-but-3-ynyl]-dihydro-pyran-2,4-dione] — 2.7-fold higher, 12.1 µM
- O=C1CC(=O)OC(CCC#Cc2ccc3scnc3c2)(C2CCCC2)C1 (centres unmarked) [Example 8, 6-(4-Benzothiazol-5-yl-but-3-ynyl)-6-cyclopentyl-dihydro-pyran-2,4-dione] — the same, 4.5 µM
- O=C1CC(=O)OC(CCC#Cc2ccccc2)(C2CCCC2)C1 (centres unmarked) [Example 6, 6-cyclopentyl-6-(4-phenyl-but-3-ynyl)-dihydro-pyran-2,4-dione] — 1.8-fold higher, 8.29 µM
- COC(=O)Cc1ccc(C#CC2(C3CCCC3)CC(=O)CC(=O)O2)cc1 (centres unmarked) [Example 4] — 14-fold higher, 64.6 µM
- COC(=O)Cc1ccc(C#CCCC2(C3CCCC3)CC(=O)CC(=O)O2)cc1 (centres unmarked) [Example 12, {4-[4-(2-cyclopentyl-4,6-dioxo-tetrahydro-pyran-2-yl)-but-1-ynyl]-phenyl}-acetic acid methyl ester] — 2.3-fold higher, 10.2 µM
- COc1ccc(C#CC2(C3CCCC3)CC(=O)CC(=O)O2)cc1 (centres unmarked) [Example 1, 6-cyclopentyl-6-[(4-methoxyphenyl)ethynyl]dihydro-2H-pyran-2,4(3H)-dione] — 2.7-fold higher, 12 µM
- O=C1CC(=O)OC(C#Cc2nccs2)(C2CCCC2)C1 (centres unmarked) [Example 2, Cyclopentyl-6-(1,3-thiazol-2-ylethynyl)dihydro-2H-pyran-2,4(3H)-dione] — 2.1-fold lower, 2.1 µM
- CC(=O)Nc1ccc(C#CCCC2(C3CCCC3)CC(=O)CC(=O)O2)cn1 (centres unmarked) [Example 11, N-{5-[4-(2-Cyclopentyl-4,6-dioxo-tetrahydro-pyran-2-yl)-but-1-ynyl]-pyridin-2-yl}-acetamide] — 15-fold higher, 67 µM
- C#CCCC1(C2CCCC2)CC(=O)C(Sc2ccccc2)C(=O)O1 (centres unmarked) [Example 16, 6-But-3-ynyl-6-cyclopentyl-3-phenylsulfanyl-dihydro-pyran-2,4-dione] — 18-fold higher, 80 µM
